Reference: patent US20250376441A1, “NOVEL COMPOUND AND PHARMACEUTICAL COMPOSITION COMPRISING SAME AS ACTIVE INGREDIENT” (Industry-Academic Cooperation Foundation, Yonsei University, priority 2017, published 2025)
“And” between values parts separate entries of the source, which are not always exact repeats. Equal values may be shown once.

How the values were obtained:
[1] = system: Salmonella typhimurium TA98; assay: Ames reverse mutation test, TA98
Method: (§1) For each strain, treatment with a single concentration of 200 μg/plate was performed in triplicate and mutation was checked.

HFL-1 = assay: Cytotoxicity test (Cyto X cell viability assay kit), HFL-1; assay type: cell-based; conditions: Homo sapiens, HFL1
Method: In order to identify whether the Preparation Example 6 according to the present invention is toxic to cells, a cytotoxicity test was conducted at the Korea Research Institute of Chemical Technology using the Cyto X™ cell viability assay kit ([…]).

Half-life test = assay: Half-life test
From the text: In order to identify whether the Preparation Example 6 according to the present invention can be orally administered, a half-life of the compound was checked. […] The results are illustrated in FIG. 18.

[2] = system: amyloid-beta peptide1-42 degenerative neurological disease-induced mice; assay: Passive avoidance response test; assay type: in vivo, ICR mice; conditions: p<0.05 vs beta-amyloid group
Method: (§2) In order to induce a degenerative neurological disease, the experimental animals of Preparatory Example 1 were anesthetized by inhalation with 2.5% isoflurane. Then, 1 μg of amyloid-beta peptide1-42, a degenerative neurological disease-inducing substance, was administered to the animals at both hippocampal positions (AP: −2.3, L: ±2.0, H: −1.5) using a stereotaxic apparatus. […] For the administration, 1 μl was injected, at a flow rate of 0.2 μl/min, with a […] gas-tight glass syringe (Hamilton, Reno, NV, USA) using a perfusion pump (Pump 22, Harvard Apparatus, South Natick, MA, USA). Subsequently, the syringe was allowed to stand for 5 minutes and then removed.
(§3) Then, a degenerative neurological disease was induced as in Preparation Example 2.
Under a situation where a chamber with a bright light and a dark chamber were connected to each other via a small passage, 4 hours before the experiment, the experimental animals were placed in the chamber with a bright light. The experimental animals instinctively enter the dark chamber. However, after 4 hours of fear learning carried out by using an electric shock to give aversive stimulus, in a case where the experimental animals are placed in the chamber with a bright light, the time until the experimental animals enter the dark chamber was measured and quantified. The results are illustrated in FIG. 10.

[3] = target: AMP-activated protein kinase (AMPK); assay: AMPK kinase assay (luminescence, purified enzyme, ATP, substrate peptide); assay type: biochemical; conditions: AMPK activation
Method: In order to identify an effect of the Preparation Example 6 having the highest docking score in Experimental Example 1 on activity of the AMP-activated protein kinase (AMPK), a kinase assay was performed. The kinase assay was performed as follows. […] Then, purified AMP-activated protein kinase and ATP were allowed to react on a substrate peptide for the AMP-activated protein kinase, and degrees of luminescence thereof were shown as EC50 in Table 3 and FIG. 3.

[4] = Solubility by nephelometry; assay type: physicochemical; conditions: 5% DMSO in water, aqueous with cosolvent or surfactant or cyclodextrin, kinetic from dmso stock, DMSO 5%/water solvent
Method: For a preliminary examination on clinical application of the Preparation Example 6, evaluation on lipophilicity and solubility was performed.

[5] = system: amyloid-beta peptide1-42 degenerative neurological disease-induced mice; assay: Rotarod test; assay type: in vivo, ICR mice; conditions: p<0.05 vs beta-amyloid group
Method: as §2, §3
As an experiment for evaluating effects of the samples on decreased motor coordination ability and motor sensation associated with a degenerative neurological disease, a rotarod experiment which examines the overall motor function of the test groups was conducted. The experimental method was as follows. […] After 24 hours, the time to lose balance and fall off the rotating cylinder of the same condition was measured, and the result is illustrated in FIG. 11.

[6] = system: Salmonella typhimurium TA100
Method: as §1

[7] = system: amyloid-beta peptide1-42 degenerative neurological disease-induced mice; assay: Probe test (Morris water maze, platform removed); assay type: in vivo, ICR mice; conditions: 90 seconds without platform
Method: as §2, §3
A circular pool (diameter: 120 cm, height: 75 cm) was filled with water to a depth of 25±1 cm as in FIG. 4, and a 24 cm platform was prepared by hiding it 1 cm below the water surface. Space cues were installed on the four sides of the wall so that the aminals can identify locations, and skimmed milk powder was dissolved into water so that the animals cannot identify the platform with naked eyes. One day before the experiment, all the experimental animals were allowed to swim freely for 1 minute in a water bath having no platform, so that the animals can adapt to the swimming situation. After that, a test group was allowed to start, in any order, from two of the three quadrants except the quadrant where the platform was placed, and allowed to find the platform for 60 seconds. In a case where an animal finds the platform, the animal was allowed to stay thereon for 20 seconds. […] As soon as end of the position learning time, which is the 20-second staying time, the animal was allowed to start again from any quadrant, and the time and distance to reach the platform were measured. The procedure was performed four times a day, and all procedures were taken with a camera and analyzed with a video tracking system (Panlab, USA). Probe trials were made on the fifth day after the four-day experiment in toal was completed. The test group was allowed to swim freely for 90 seconds without the platform, thereby performing evaluation on whether the test group holds a memory of the platform location. The results are illustrated in FIGS. 5 to 7.
The results are illustrated in FIGS. 8 and 9.

COc1ccc(OC)c(/C=C/C(=O)c2ccc(NS(=O)(=O)c3ccc(Cl)cc3)cc2)c1 [Preparation Example 6, (E)-4-Chloro-N-(4-(3-(2,5-dimethoxyphenyl)acryloyl)phenyl)benzenesulfonamide]
Ames reverse mutation test outcome ([1]; TA98, 200 μg/plate, with or without S9): negative
Reverse mutation [factor] with S-9 mix ([1]; TA98, with S-9, factor versus control): [1.5]
Reverse mutation/dish (mean ± SD) with S-9 mix ([1]; TA98, with S-9, Preparation Example 6 at 200 μg/plate, Benzo(a)pyrene concentration 2): 35 ± 2
Reverse mutation [factor] w/o S-9 mix ([1]; TA98, without S-9, factor versus control): [1.1]
Reverse mutation/dish (mean ± SD) w/o S-9 mix ([1]; TA98, without S-9, Preparation Example 6 at 200 μg/plate, 2-Nitrofluorene concentration 2): 20 ± 4
IC50 (HFL-1): > 100 µM
half-life (Half-life test): ≥ 3 h
staying time in the chamber with a bright light ([2]; 10 mg): 156.87 ± 50.95 s
staying time in the chamber with a bright light ([2]; 100 mg): 153.48 ± 34.71 s
EC50 [3]: 0.637 µM
solubility [4]: 206 µM and 94.4 µg/mL
time to keep balance on the rotating cylinder ([5]; 10 mg): 48.62 ± 10.54 s
time to keep balance on the rotating cylinder ([5]; 100 mg): 47.65 ± 8.13 s
Ames reverse mutation test outcome ([6]; TA100, 200 μg/plate, with or without S9): negative
Reverse mutation [factor] with S-9 mix ([6]; TA100, with S-9, factor versus control): [1.0]
Reverse mutation/dish (mean ± SD) with S-9 mix ([6]; TA100, with S-9, Preparation Example 6 at 200 μg/plate, Benzo(a)pyrene concentration 2): 117 ± 4
Reverse mutation [factor] w/o S-9 mix ([6]; TA100, without S-9, factor versus control): [0.9]
Reverse mutation/dish (mean ± SD) w/o S-9 mix ([6]; TA100, without S-9, Preparation Example 6 at 200 μg/plate, Sodium azide concentration 1): 104 ± 12
swimming time in the target quadrant ([7]; 1 mg, p<0.05): 31.08 ± 6.33 s
swimming time in the target quadrant ([7]; 10 mg, p<0.01): 36.73 ± 7.78 s
swimming time in the target quadrant ([7]; 100 mg, p<0.01): 36.51 ± 6.55 s
